Measured values: ChEMBL document CHEMBL3507680, “University of Dundee, Gates Library screen for HepG2 cell viability”

Test: Human HepG2 cell viability assay in 384 well format
Type: toxicity, cell-based
Design: dose 125 nL, time 70.5 hour; concentration not given beside the values
Conditions: HepG2 cells, read-out: Inhibition

Compound	cytotoxicity at 70.5 h
O=C(c1cc(Br)ccc1Cl)N1CCN(Cc2ccco2)CC1	-4.63%
O=C(C1CC1)N1CCc2ccccc2C12CCNCC2	-1.81%
COc1ccc(CCNC(=O)Cn2ncc3c2c(C)nn3C)cc1	-12.7%
Cc1cc(NC(=O)CN2C(=O)CC(C)(C)c3ccccc32)no1	-3%
CC(=O)NC[C@]1(O)CCN(C(=O)c2ccc3c(c2)CCC3)C[C@H]1O	-3.52%
CCc1nc(C2CCCN2c2ncc(Br)cn2)no1 (stereo unspecified)	-6.32%
O=C(C1CCOC1)N1CCc2ncc(CNc3ccccn3)n2CC1 (stereo unspecified)	0.605%
CC(C)CN1C[C@@H]2OCC(=O)N(Cc3nccn3C)[C@@H]2C1	14%
CN1CCC(N(CCc2ccccc2)C(=O)COCC2CCCO2)CC1 (stereo unspecified)	-0.746%
CNc1nc(N2CCN(Cc3ccsc3)C(CCO)C2)nc2c1CCC2 (stereo unspecified)	-1.63%
O=C(CCn1ccccc1=O)Nc1ccc(I)cc1	-10.5%
Clc1ccc(-c2nnc(CNCCn3cccn3)o2)c(Cl)c1	-6.39%
CSC(C)(C)CNC(=O)NCc1cccc(-n2ccnc2)c1	-12.4%
Cc1nc(CCC(N)=O)cc(C2CCCN2S(C)(=O)=O)n1 (stereo unspecified)	0.687%
Cc1cc(CNC(=O)N2CCN(Cc3ccccc3)C[C@H]2C)on1	30.7%
O=C(c1cscn1)N1CCC2(COc3ncccc3S(=O)(=O)N2)C1 (stereo unspecified)	-3.8%
Cc1cc(NC(=O)NCCc2cccs2)n(C)n1	-1.92%
CC1CCN(C(=O)C(C)N2CCN(c3nccs3)CC2)CC1 (stereo unspecified)	-7%
CCC(=O)N1CCC(c2nc(C)c3c(n2)N(C)CCC3)CC1	-2.67%

Compound	cytotoxicity at 70.5 h
Cc1cc(Br)ccc1C(=O)N(C)CCNS(C)(=O)=O	-6.05%
CC(NCc1ccco1)c1nnc2n1CCCC2 (stereo unspecified)	-5.13%
Cc1noc(CNC(=O)CN(C)c2nc3c(F)cccc3s2)n1	28.5%
c1cnc(N2CCCC(NCc3ccc(-n4ccnc4)cc3)C2)nc1 (stereo unspecified)	-4.91%
COCCN1C[C@@H]2CCCO[C@@H]2[C@H](NC(=O)c2cnccn2)C1	-0.647%
CN(C)S(=O)(=O)N1CC(c2nc(-c3ccsc3)no2)C1	-6.06%
CN1CC(c2ccccc2)CC12CCN(C(=O)c1cncc(Cl)c1)CC2 (stereo unspecified)	-8.59%
CNC(=O)CC1CC2(CCN(Cc3nccs3)CC2)c2ccccc21 (stereo unspecified)	0.687%
CCCN1CC2(CCN(c3cc(C4CC4)ncn3)CC2)CC1C(=O)O (stereo unspecified)	-4.45%
CCNC(=O)[C@@H]1C[C@@H](N)CN1Cc1ccc2cccc(Cl)c2n1	20.1%
O=C1[C@H]2CN(Cc3nccs3)C[C@H]2CN1c1ccsc1	-1.21%
c1cnc2nc(N3CCCC3c3nnc4n3CCCCC4)ccc2n1 (stereo unspecified)	-4.33%
CCN(C(=O)NCCc1ccc(C)cc1C)C(C)CS(C)(=O)=O (stereo unspecified)	-12.9%
CC1=C(CCN2C[C@H](O)[C@@H](N3CCOCC3)C2)C(C)(C)CCC1	-8.76%
CC(C)[C@H](Nc1nc(C2CCCC2)nc2c1cnn2C)C(N)=O	-12.3%
Cc1ccc(C(NC(=O)CN2CCc3c(ncn3C)C2)C2CC2)cc1 (stereo unspecified)	-16.3%
CC(=O)N1CC(C(=O)Nc2cccc(OC(F)F)c2)C1	-3.71%
O=C(CCCN1C(=O)CCC1=O)NCC1(c2ccccc2)CCC1	-11.4%
CS(=O)(=O)N1CCO[C@@H]2CN(C(=O)N3CCOCC3)CC[C@@H]2C1	-6.09%

Compound	cytotoxicity at 70.5 h
CNC(=O)C1(c2cnccn2)CCCN1C(=O)c1ccccc1 (stereo unspecified)	17.8%
Cc1nn(CCO)cc1CN1CCCN(C2CCCC2)CC1	12.8%
COC(=O)c1ccoc1CN(C1CC1)C1CCS(=O)(=O)C1 (stereo unspecified)	-0.821%
CC(c1ccccc1Cl)N(C(=O)CSCC(N)=O)C1CC1 (stereo unspecified)	12.5%
Cn1ccc(C(=O)N2CCCC(CNS(C)(=O)=O)C2)cc1=O (stereo unspecified)	-8.6%
Cn1nc(C2CC2)cc1C(=O)N1CCC(c2nnsc2S(C)(=O)=O)CC1	-4.78%
CC(C)CCNc1c(C#N)c2c(c3nncn13)CN(C)CC2	-3.96%
O=C(NC1CCN(c2ncccn2)CC1)c1cc2c([nH]c1=O)CCC2	-10.7%
CCc1cc(C(=O)N2CCC(c3cc4ncccc4cn3)CC2)no1	18.3%
Cc1nc(CN2CCCC(c3nc(C)n4c(C)c(C)sc34)C2)co1 (stereo unspecified)	21%
COC(=O)N1CCCC(C(=O)NCc2cc3cccc(OC)c3o2)C1 (stereo unspecified)	-6.62%
COC(=O)C1CCN(C(=O)c2nnc3ccc(Cl)cc3n2)CC1	-7.04%
Cc1nn(C)c(C)c1CNC(=O)c1cc(NC(=O)C2CC2)n(C)n1	-7.51%
O=C(Nc1cc(CSCCO)ccn1)c1cc2ccccc2[nH]1	13.4%
Cc1ccc(OCC(=O)NS(=O)(=O)Cc2ccccc2)cc1	-5.22%
CNC(=O)N1C[C@H]2C[C@H](C(=O)NCc3cccnc3)[C@@H](C1)O2	-4.91%
Cc1ccc(C(=O)N2CCC(C(F)(F)F)CC2)cc1N1CCNC1=O	4.91%
Cn1cc(N2CCC3(CCCN(C(=O)c4ccnn4C)C3)C2=O)cn1 (stereo unspecified)	-4.7%
